Reference: BigSolDB 2.1

O=C(NC[C@H]1CN(c2ccc(N3CCOCC3=O)cc2)C(=O)O1)c1ccc(Cl)s1
solubility (mole fraction)
Conditions | 283.15 K | 288.15 K | 293.15 K | 298.15 K | 303.15 K | 308.15 K
in dichloromethane | 0.000254 | 0.00028 | 0.000308 | 0.000338 | 0.00037 | 0.000403
in ethanol | 1.21e-05 | 1.46e-05 | 1.75e-05 | 2.09e-05 | 2.5e-05 | 2.94e-05
in methanol | 2.41e-05 | 2.97e-05 | 3.63e-05 | 4.42e-05 | 5.29e-05 | 6.36e-05
in n-butanol | 5.56e-06 | 7.84e-06 | 1.08e-05 | 1.48e-05 | 2.01e-05 | 2.73e-05
in n-propanol | 7.99e-06 | 1.05e-05 | 1.37e-05 | 1.77e-05 | 2.26e-05 | 2.88e-05
